Laboratory results from article PMC8534003, “The Chemokine-Based Peptide, CXCL9(74-103), Inhibits Angiogenesis by Blocking Heparan Sulfate Proteoglycan-Mediated Signaling of Multiple Endothelial Growth Factors” (Cancers, 2021).
Where no end group is shown, it is not given here.

Tests used:
FGF-2 [1] = molecular target: T1, FGF-2 (Homo sapiens, UniProt P09038); assay: Grating-coupled interferometry (GCI); format: binding; settings: FGF-2 over immobilized biotinylated CXCL9(74-103), 25 °C, pH 7.4; mean ± SEM, n = 3
T1 construct: purchased R&D Systems
T1 sequence (P09038 143-288): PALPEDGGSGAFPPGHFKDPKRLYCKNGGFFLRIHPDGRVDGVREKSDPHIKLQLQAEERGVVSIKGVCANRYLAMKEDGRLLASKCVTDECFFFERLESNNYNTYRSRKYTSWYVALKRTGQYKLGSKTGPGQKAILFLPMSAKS
Experimental: GCI experiments were performed on a Creoptix WAVEdelta system (Creoptix AG, Wädenswil, Switzerland), which is a label-free surface biosensor system for the characterization of molecular interactions. 4PCP-STA chips (Creoptix AG) were used, which contain a quasi-planar polycarboxyl-matrix with pre-immobilized streptavidin. The running buffer for the experiments was PBS supplemented with 30 mM NaCl, 15 mM L-Arginine, 0.015% (v/v) Tween® 20 and 0.05 mg/mL BSA at pH 7.4 for reducing nonspecific binding. Chips were conditioned using borate buffer (100 mM sodium borate, 1 M NaCl, pH 9.0). Capture was performed by injecting biotinylated CXCL9(74-103) at a concentration of 2 µg/mL and a flow rate of 10 µL/minute over the chip surface, until a density of +/− 160 was reached. After capture of biotinylated CXCL9(74-103), binding with FGF-2 was studied by injecting an FGF-2 concentration series over the chip surface. […] A reference channel was blocked in the same way. Injections of the FGF-2 analyte were performed at 25 °C, with an association and dissociation time of 120 seconds and a flow rate of 40 µL/min. Absence of mass-transport limitation was verified by repeating the experiment at 50 µL/minute. A 1:3 dilution series with six dilutions (4.53 nM, 13.6 nM, 40.7 nM, 122 nM, 367 nM, 1.10 µM; all in duplicate) was analyzed. […]

HMVECs = assay: In vitro toxicity assay (LIVE/DEAD viability/cytotoxicity); format: cell-based, human; settings: 0.3 or 3 µM, 24 h, calcein-AM/EthD-1, n = 4
Experimental: HMVECs were seeded in MCDB131 medium supplemented with 3% (v/v) FCS at 8 × 10^3 cells/well in a black, clear bottom 96-well plate coated with 0.1% (v/v) gelatin in PBS. The next day, cells were washed and incubated with control medium (vide supra) alone or in the presence of 0.3 or 3 µM of CXCL9(74-103) or CXCL9(86-103) for 24 h. The negative control cells were treated with 2% (v/v) Triton™ X-100 to induce cell death […] after the start of the experiment, i.e., 1 h prior to the addition of the LIVE/DEAD stain. The toxicity of the peptides was assessed using the LIVE/DEAD viability/cytotoxicity kit (Invitrogen, Carlsbad, CA, USA), according to the manufacturer’s instructions. At 24 h, calcein-acetoxymethyl ester (AM) and ethidium homodimer-1 (EthD-1) in 0.4% (v/v) FCS in DMEM FluoroBrite (Gibco) were added to all wells and the fluorescence was measured in the IncuCyte S3 live cell imaging system (Essen BioScience, Ltd.; Newark, UK).

FGF-2 [2] = settings: cited from earlier work
Excerpt: Earlier studies that report on targeting HS-mediated interactions most commonly rely on HS mimetics that either mask HS for GF binding or directly interact with the GF, preventing it from binding to HS [39]. […] Pagano et al. reported that the small molecule inhibitor SM27, derived from the FGF-2-binding region of thrombospondin-1 (TSP-1), selectively bound the heparin-binding site of FGF-2 ...

[3] = test system: EGFR and α3β1 integrin / syndecan-4; settings: cited from earlier work
Excerpt: Syndecan-4, the most abundant mammalian syndecan, has been described to function as an independent receptor for several heparin-binding growth factors such as FGFs, VEGFs and PDGFs. Upon ligand binding, the HSPGs oligomerize and initiate signaling components such as mammalian target of rapamycin (mTOR), RAC-α serine/threonine-protein kinase (AKT1) and the Rho family of GTPases, which are r ...

In the case of “KKKQKNGKKHQKKKVLKVRKSQRSRQKKTT [CXCL9(74-103)]”, the koff (FGF-2 [1]) is reported as 0.00207 s⁻¹, the kon (FGF-2 [1]) is reported as 20000 M⁻¹ s⁻¹ and the “cell viability / toxicity” value (HMVECs) is reported as “without inducing any cell toxicity”.
For “TSP-2: another TSP (thrombospondin) with anti-angiogenic activity”, the “interaction with FGF-2” value (FGF-2 [2]) is listed as “able to interact with FGF-2 and interfered with HS and FGFR1 binding”.
For “synstatin (SSTNEGFR): a peptide based on the EGFR interaction motifs”, the “displacement from syndecan and cell migration” value [3] is given as “displaces the RTK and α3β1 integrin from the syndecan and prevents cell migration”.
